This note sets out measurements from patent publication US20240132498A1, “CRYSTALLINE FORMS OF 5-(3,4-DIFLUOROBENZYL)-8-((1R,4R)-4-METHYLCYCLOHEXYL)-6,9-DIOXO-2,5,8-TRIAZASPIRO[3.5]NONANE-2-CARBALDEHYDE” (Cytokinetics, Incorporated, priority 2022, published 2024).

Format in all cases: physicochemical
The nature of series [1]: Competitive slurry experiments between Form I and Form II. The note with it: competitive slurry. From the text:
The results of the competitive slurry experiments are provided below in Table 6.

The nature of series [2]: Short-term static storage stability of the solid (XRPD, HPLC). The procedure:
Purity analysis was performed on an Agilent HP1100/Infinity 111260 series system equipped with a diode array detector and using OpenLAB software. The full method details are provided below.
For short-term (8 days or fewer) stability experiments, solid material was placed into open vials at elevated storage conditions, unless otherwise stated. These conditions were achieved using saturated salt solutions at specific temperatures within sealed containers. Storage containers were pre-equilibrated prior to input of samples.

Series [3] can be described thus: Polymorph screening with liquid assisted grinding (LAG), XRPD outcome. The procedure: 30 mg of amorphous 5-(3,4-difluorobenzyl)-8-((1r,4r)-4-methylcyclohexyl)-6,9-dioxo-2,5,8-triazaspirol[3.5]nonane-2-carbaldehyde was wetted with solvent (5 μL). Two grinding beads (3 mm diameter) were added and the samples were ground for 2 hours at 500 rpm using a planetary Fritsch Mill (Pulverisette 6). After grinding all solids were analysed by XRPD.
Gums were stored at ambient conditions. Gums and samples containing brittle material were dried in-vacuo at R. T. in a vacuum oven overnight (ca. 200 mbar). Observations were recorded and the samples were further dried in-vacuo at R. T. in a vacuum oven overnight (ca. 5 mbar). Where gums still persisted, the samples were further dried in-vacuo at R. T. in a vacuum oven (ca. 5 mbar) for 3 days. The observations and XRPD analysis are provided in Table 5-G. Further treatment details of gums and brittle materials are summarized in Table 5-H.

[4] abbreviates: Storage at 40° C./75% RH for 7 days.

On to `C[C@H]1CC[C@H](N2CC(=O)N(Cc3ccc(F)c(F)c3)C3(CN(C=O)C3)C2=O)CC1` [Forms I and II], for which the XRPD entry in series [1] (EtOAc, 5 °C) is on record as “Form II”; in series [1] (EtOAc/cyclohexane (50:50 v/v), 5 °C), “Form II”; in series [1] (EtOAc/cyclohexane (50:50 v/v), 50 °C), “Form II”; in series [1] (EtOAc/cyclohexane (85:15 v/v), 5 °C), “Form II”; in series [1] (EtOAc/cyclohexane (85:15 v/v), 50 °C), “Form II”; in series [1] (EtOH, 5 °C), “Form II”. In addition, the XRPD result in series [1] (EtOH, 50 °C) is listed as “Form II”; in series [1] (EtOH/water (15/85 v/v), 50 °C), “Form II”; in series [1] (EtOH/water (85:15 v/v), 50 °C) it was “Form II”; in series [1] (MIBK, 5 °C), “Form II”; in series [1] (MIBK, 50 °C) it was “Form II”; in series [1] (Toluene, 50 °C), “Form II”. Besides, the XRPD result in series [1] (acetonitrile, 5 °C) was “Form II”; in series [1] (acetonitrile, 50 °C), “Form II”.
`C[C@H]1CC[C@H](N2CC(=O)N(Cc3ccc(F)c(F)c3)C3(CN(C=O)C3)C2=O)CC1` [Form I, 5-(3,4-difluorobenzyl)-8-((1r,4r)-4-methylcyclohexyl)-6,9-dioxo-2,5,8-triazaspiro[3.5]nonane-2-carbaldehyde]: the HPLC purity in series [2] (Before Storage) was found to be 96.3%. For the same compound, the XRPD entry in series [2] (Before Storage) is reported as “Form I”; in series [2] (Storage at 25° C./97% RH for 7 days), “Unchanged by XRPD”; in series [2] (setting [4]), “Unchanged by XRPD”.
On to `C[C@H]1CC[C@H](N2CC(=O)N(Cc3ccc(F)c(F)c3)C3(CN(C=O)C3)C2=O)CC1`, for which the XRPD entry is given as “Form II” in series [3] (LAG gum/brittle material after drying in-vacuo, solvent EtOH/water 97:3 v/v); “Form II” in series [3] (LAG of amorphous material, solvent 1,4-dioxane/water 99:1 v/v); “Form I” in series [3] (LAG of amorphous material, solvent 1-PrOH/water 98:2 v/v); “Form II” in series [3] (LAG of amorphous material, solvent 15% v/v water in 1-PrOH); “Form II” in series [3] (LAG of amorphous material, solvent 15% v/v water in 2-PrOH); “Form I” in series [3] (LAG of amorphous material, solvent 15% v/v water in DMSO). Also, the XRPD result is on record as “Form II” in series [3] (LAG of amorphous material, solvent 15% v/v water in EtOH); “Form II” in series [3] (LAG of amorphous material, solvent 15% v/v water in MeOH); “Form I” in series [3] (LAG of amorphous material, solvent 15% v/v water in acetone); “Form II” in series [3] (LAG of amorphous material, solvent 50% v/v water in 1-PrOH); “Form I” in series [3] (LAG of amorphous material, solvent 50% v/v water in DMSO); “Form I” in series [3] (LAG of amorphous material, solvent 50% v/v water in EtOH). Moreover, the XRPD result in series [3] (LAG of amorphous material, solvent 50% v/v water in acetone) is given as “Amorphous”; in series [3] (LAG of amorphous material, solvent 80% v/v water in 2-BuOH) it was “Form I”; in series [3] (LAG of amorphous material, solvent 85% v/v water in 2-PrOH) it was “Form I”; in series [3] (LAG of amorphous material, solvent 85% v/v water in acetone), “Amorphous”; in series [3] (LAG of amorphous material, solvent 95% v/v water in 2-BuOH), “Form I”; in series [3] (LAG of amorphous material, solvent Acetone/water 99:1 v/v) it was “Form II”. For the same compound, the XRPD result in series [3] (LAG of amorphous material, solvent Acetonitrile/water 1:1 v/v) is on record as “Form II”; in series [3] (LAG of amorphous material, solvent MeOH/water 97:3 v/v), “Form II”.
Regarding `C1COCCO1.C[C@H]1CC[C@H](N2CC(=O)N(Cc3ccc(F)c(F)c3)C3(CN(C=O)C3)C2=O)CC1` [Form III, 5-(3,4-difluorobenzyl)-8-((1r,4r)-4-methylcyclohexyl)-6,9-dioxo-2,5,8-triazaspiro[3.5]nonane-2-carbaldehyde 1,4-dioxane solvate], in series [2] (setting [4]), the XRPD entry is recorded as “converted to crystalline Form II”.
